Assay results published in ChEMBL document CHEMBL5038628, “Discovery of spiro amide SHR902275: A potent, selective, and efficacious RAF inhibitor targeting RAS mutant cancers” (Eur J Med Chem, 2022).
Converted amounts (≈) assume the structure as drawn.

Columns and labels:
[1] = target: RAF proto-oncogene serine/threonine-protein kinase (Homo sapiens, UniProt P04049); assay: Inhibition of human recombinant cRAF measured after 60 mins by TR-FRET assay
NCI-H358 = assay: Cytotoxicity against human NCI-H358 cells assessed as inhibition of growth measured after 72 hrs by CellTiter-Glo luciferase assay; type: functional
[2] = Solubility of the compound at pH 7.4; conditions: buffer
[3] = Cmax in Sprague-Dawley rat plasma at 2 mg/kg, IG by LC-MS/MS analysis; type: ADME, organism-based; set-up: route […], dose 2 mg/kg; conditions: po
[4] = AUC (0 to t) in Sprague-Dawley rat plasma at 2 mg/kg, IG by LC-MS/MS analysis; type: ADME, organism-based; set-up: dose 2 mg/kg; conditions: Sprague-Dawley, plasma, po
Calu-6 = assay: Antitumor activity against human Calu-6 cells xenografted in nude mouse assessed as tumor growth inhibition at 30 mg/kg,IT QD for 12 days relative to control; type: functional; conditions: Calu-6, 288 h, time 12 day, read-out: TGI
[5] = Metabolic stability in human liver microsomes assessed as half life; type: ADME, Microsome
[6] = Half life in Sprague-Dawley rat plasma at 1 mg/kg, iv by LC-MS/MS analysis; type: ADME, organism-based; conditions: for t1/2: in vivo, 1 mg/kg; for half-life: Sprague-Dawley, plasma
[7] = Clearance in Sprague-Dawley rat plasma at 1 mg/kg, iv by LC-MS/MS analysis; type: ADME, organism-based
[8] = AUC (0 to t) in Sprague-Dawley rat plasma at 1 mg/kg, iv by LC-MS/MS analysis; type: ADME, organism-based; set-up: dose 1 mg/kg
[9] = MRT (0 to infinity) in Sprague-Dawley rat plasma at 1 mg/kg, iv by LC-MS/MS analysis; type: ADME, organism-based; conditions: in vivo
[10] = Oral bioavailability in Sprague-Dawley rat by LC-MS/MS analysis; type: ADME, organism-based; conditions: Sprague-Dawley, in vivo

Chain of RAF proto-oncogene serine/threonine-protein kinase (P04049 whole entry): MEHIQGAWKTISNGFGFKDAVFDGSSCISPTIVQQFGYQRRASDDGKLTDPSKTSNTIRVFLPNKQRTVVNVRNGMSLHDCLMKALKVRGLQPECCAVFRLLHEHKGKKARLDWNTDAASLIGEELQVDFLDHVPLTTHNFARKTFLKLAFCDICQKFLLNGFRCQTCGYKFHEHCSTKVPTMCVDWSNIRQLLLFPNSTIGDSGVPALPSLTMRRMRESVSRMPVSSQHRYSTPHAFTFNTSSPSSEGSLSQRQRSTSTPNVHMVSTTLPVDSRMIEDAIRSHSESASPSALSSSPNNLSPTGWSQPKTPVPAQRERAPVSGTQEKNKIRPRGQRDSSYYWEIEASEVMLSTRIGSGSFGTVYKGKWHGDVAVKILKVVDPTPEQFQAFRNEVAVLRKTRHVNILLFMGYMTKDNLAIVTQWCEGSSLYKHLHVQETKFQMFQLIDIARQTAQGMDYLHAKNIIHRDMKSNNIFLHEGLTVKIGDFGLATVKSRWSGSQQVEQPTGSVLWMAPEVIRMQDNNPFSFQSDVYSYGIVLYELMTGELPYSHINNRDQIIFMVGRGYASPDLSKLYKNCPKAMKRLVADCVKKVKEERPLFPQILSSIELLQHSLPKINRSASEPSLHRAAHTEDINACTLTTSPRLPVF

Compound | IC50 [1] | GI50 (NCI-H358) | solubility [2] | further results
Cc1ccc(NC(=O)c2ccnc(C(F)(F)F)c2)cc1-c1ccc2c(c1)OC1(CCOCC1)CNC2=O | 3.6 nM | 2900 nM | 10.4 µM (≈ 5.32 µg/mL) | Cmax [3]: 7.7 ng/mL; AUC(0-t) [4]: 41.3 ng·h/mL
Cc1ccc(NC(=O)c2ccnc(C(F)(F)F)c2)cc1-c1ccc2c(c1)OC1(CCOCC1)CN(C)C2=O | 1.3 nM | 2900 nM | 8.5 µM (≈ 4.47 µg/mL) | 
Cc1ccc(NC(=O)c2ccnc(C(F)(F)F)c2)cc1-c1ccc2c(c1)OC1(CCN2)CCOCC1 | 5.4 nM | 13000 nM |  | 
Cc1ccc(NC(=O)c2ccnc(C(F)(F)F)c2)cc1-c1cc(OCCO)nc(N2CCOCC2)c1 [NAPORAFENIB] | 8.6 nM | 3000 nM | 26 µM (≈ 13.1 µg/mL) | inhibition in vivo at 30 mg/kg (Calu-6): 67%
Cc1ccc(NC(=O)c2cc(OCCO)nc(C(F)(F)F)c2)cc1-c1ccc2c(c1)OC1(CCOCC1)CC(=O)N2 | 26 nM | 4300 nM |  | 
Cc1ccc(NC(=O)c2cc(OC3CC3)cnn2)cc1-c1ccc2c(c1)OC1(CCOCC1)CC(=O)N2 | 3.4 nM | 1900 nM |  | half-life [5]: 6.8 min
Cc1ccc(NC(=O)c2cncc(C(F)(F)F)c2)cc1-c1ccc2c(c1)OC1(CCOCC1)CC(=O)N2 | 5.4 nM | 1600 nM | 0.06 µM (≈ 0.0307 µg/mL) | 
Cc1ncc(NC(=O)c2ccnc(C(F)(F)F)c2)cc1-c1ccc2c(c1)OC1(CCOCC1)CC(=O)N2 | 5 nM | 6300 nM |  | 
Cc1ccc(NC(=O)c2cc(C(F)(F)F)cnn2)cc1-c1ccc2c(c1)OC1(CCOCC1)CC(=O)N2C | 3.9 nM | 1300 nM | 2.3 µM (≈ 1.21 µg/mL) | half-life [5]: 4.6 min
Cc1ccc(NC(=O)c2ccnc(C(F)(F)F)n2)cc1-c1ccc2c(c1)OC1(CCOCC1)CC(=O)N2 | 334 nM | 12000 nM |  | 
Cc1cnc(NC(=O)c2ccnc(C(F)(F)F)c2)cc1-c1ccc2c(c1)OC1(CCOCC1)CC(=O)N2 | 1.8 nM | 3800 nM |  | 
Cc1ccc(NC(=O)c2cc(C(F)(F)F)ncn2)cc1-c1ccc2c(c1)OC1(CCOCC1)CC(=O)N2 | 5.5 nM | 2700 nM | 0.35 µM (≈ 0.179 µg/mL) | 
COc1nnc(C(=O)Nc2ccc(C)c(-c3ccc4c(c3)OC3(CCOCC3)CC(=O)N4)c2)cc1C(F)(F)F | 22 nM | 2600 nM | 3.6 µM (≈ 1.95 µg/mL) | half-life [5]: 57 min
O=C1CC2(CCOCC2)Oc2cc(-c3cc(NC(=O)c4ccnc(C(F)(F)F)c4)ccc3CO)ccc2N1 | 3.5 nM | 21000 nM |  | 
Cc1ccc(NC(=O)c2ccnc(C(F)(F)F)c2)cc1-c1ccc2c(c1)OC1(CCOCC1)CCO2 | 32 nM | 8500 nM |  | 
Cc1ccc(NS(=O)(=O)c2ccnc(C(F)(F)F)c2)cc1-c1ccc2c(c1)OC1(CCOCC1)CC(=O)N2 | 32 nM | > 30000 nM |  | 
Cc1ccc(NC(=O)c2cc(C(F)F)cnn2)cc1-c1ccc2c(c1)OC1(CCOCC1)CC(=O)N2 | 0.8 nM | 3900 nM | 7 µM (≈ 3.46 µg/mL) | 
COc1ccc(NC(=O)c2ccnc(C(F)(F)F)c2)cc1-c1ccc2c(c1)OC1(CCOCC1)CC(=O)N2 | 3.6 nM | 5900 nM |  | 
Cc1ccc(NC(=O)c2ccnc(C(F)(F)F)c2)cc1-c1ccc2c(c1)OC1(CCOCC1)CC(=O)N2CCO | 0.83 nM | 4700 nM |  | 
Cc1ccc(NC(=O)c2cc(C(F)(F)F)ccn2)cc1-c1ccc2c(c1)OC1(CCOCC1)CC(=O)N2 | 11.3 nM | 2900 nM | 1.4 µM (≈ 0.716 µg/mL) | 
Cc1cc(F)c(NC(=O)Nc2ccnc(C(F)(F)F)c2)cc1-c1ccc2c(c1)OC1(CCOCC1)CC(=O)N2 | 6.7 nM | 200 nM |  | t1/2 [6]: 22.2 min; clearance [7]: 120 mL/min/kg; AUC(0-t) [8]: 154 ng·h/mL; MRT [9]: 11.4 min
Cc1ccc(NC(=O)c2cc(C(F)(F)F)nn2C)cc1-c1ccc2c(c1)OC1(CCOCC1)CC(=O)N2 | 28 nM | 13000 nM |  | 

Compound | IC50 [1] | GI50 (NCI-H358) | solubility [2] | further results
Cc1cc(F)c(NC(=O)N(C)c2ccnc(C(F)(F)F)c2)cc1-c1ccc2c(c1)OC1(CCOCC1)CC(=O)N2 | 4.7 nM | 9400 nM |  | 
Cc1ccc(NC(=O)C2CCNC(C(F)(F)F)C2)cc1-c1ccc2c(c1)OC1(CCOCC1)CC(=O)N2 (configuration not stated) | 3.3 nM | > 30000 nM |  | 
Cc1ccc(NC(=O)c2ccnc(C(F)(F)F)c2)cc1-c1ccc2c(c1)OC1(CCOCC1)CN(CCN(C)C)C2=O | 13 nM | 7600 nM |  | 
Cc1ccc(C(=O)Nc2ccnc(C(F)(F)F)c2)cc1-c1ccc2c(c1)OC1(CCOCC1)CC(=O)N2 | 21 nM | 8600 nM |  | 
Cc1ccc(NC(=O)c2ccc(C(F)(F)F)s2)cc1-c1ccc2c(c1)OC1(CCOCC1)CC(=O)N2 | 69 nM | 3400 nM |  | 
Cc1ccc(NC(=O)c2cc(C(F)(F)F)cnn2)cc1-c1ccc2c(c1)OC1(CCOCC1)CC(=O)N2CCO | 2.6 nM | 2600 nM |  | half-life [5]: 11 min
Cc1ccc(NC(=O)N2CCCC(C(F)(F)F)C2)cc1-c1ccc2c(c1)OC1(CCOCC1)CC(=O)N2 (configuration not stated) | 13 nM | 5500 nM |  | 
Cc1ccc(NC(=O)c2ccnc(C(F)(F)F)c2)cc1-c1ccc2c(c1)OC1(CCOCC1)CN(CCO)C2=O | 1.3 nM | 3200 nM | 311 µM (≈ 173 µg/mL) | Cmax [3]: 5.9 ng/mL; clearance [7]: 40.4 mL/min/kg; AUC(0-t) [4]: 29 ng·h/mL; bioavailability [10]: 3.47%
Cc1ccc(NC(=O)c2cncc(C(F)(F)F)n2)cc1-c1ccc2c(c1)OC1(CCOCC1)CC(=O)N2 | 3.3 nM | 5200 nM |  | 
Cc1ccc(NC(=O)c2ccnc(C(F)(F)F)c2)cc1-c1ccc2c(c1)OC1(CCOCC1)CC(=O)N2C | 4.5 nM | 7100 nM |  | 
Cc1ccc(NC(=O)c2cccc(C(F)(F)F)n2)cc1-c1ccc2c(c1)OC1(CCOCC1)CC(=O)N2 | 19.7 nM | 6800 nM |  | 
Cc1ccc(NC(=O)c2cc(OCCO)nc(OC(F)F)c2)cc1-c1ccc2c(c1)OC1(CCOCC1)CC(=O)N2 | 9.2 nM | 2000 nM | 0.41 µM (≈ 0.234 µg/mL) | 
Cc1ccc(NC(=O)c2ccnc(C(F)(F)F)c2)cc1-c1ccc2c(c1)OC1(CCOCC1)CNC2 | 4.3 nM | 15000 nM |  | 
Cc1ccc(NC(=O)c2ccnc(C(F)(F)F)c2)nc1-c1ccc2c(c1)OC1(CCOCC1)CC(=O)N2 | 2.2 nM | > 30000 nM |  | 
Cc1ccc(NC(=O)c2ccnc(C3CC3)c2)cc1-c1ccc2c(c1)OC1(CCOCC1)CC(=O)N2 | 7.1 nM | 2500 nM | 0.61 µM (≈ 0.295 µg/mL) | 
Cc1ccc(NC(=O)c2nccc(C(F)(F)F)n2)cc1-c1ccc2c(c1)OC1(CCOCC1)CC(=O)N2 | 2 nM | 2300 nM | 1.4 µM (≈ 0.717 µg/mL) | 
Cc1cc(F)c(NC(=O)Cc2ccnc(C(F)(F)F)c2)cc1-c1ccc2c(c1)OC1(CCOCC1)CC(=O)N2 | 3.2 nM | 9400 nM |  | 
Cc1ccc(NC(=O)c2cnnc(C(F)(F)F)c2)cc1-c1ccc2c(c1)OC1(CCOCC1)CC(=O)N2 | 3.2 nM | 2000 nM | 0.44 µM (≈ 0.225 µg/mL) | Cmax [3]: 40 ng/mL; half-life [6]: 90 min; clearance [7]: 16.1 mL/min/kg; AUC(0-t) [4]: 176 ng·h/mL; bioavailability [10]: 9.2%
Cc1ccc(NC(=O)c2ccnc(OC(F)F)c2)cc1-c1ccc2c(c1)OC1(CCOCC1)CC(=O)N2 | 4.1 nM | 900 nM | 0.16 µM (≈ 0.0815 µg/mL) | Cmax [3]: 107 ng/mL; half-life [6]: 90 min; clearance [7]: 16.7 mL/min/kg; AUC(0-t) [4]: 455 ng·h/mL; bioavailability [10]: 22%
Cc1ccc(NC(=O)c2ccnc(C(F)(F)F)c2)cc1-c1ccc2c(c1)OC1(CCOCC1)CN(CC(C)(C)O)C2=O | 34 nM | 6200 nM |  | 
Cc1ccc(-c2nnc(-c3ccnc(C(F)(F)F)c3)[nH]2)cc1-c1ccc2c(c1)OC1(CCOCC1)CC(=O)N2 | 48 nM | 2500 nM |  | t1/2 [6]: 227 min; clearance [7]: 17.1 mL/min/kg; AUC(0-t) [4]: 38.6 ng·h/mL; bioavailability [10]: 2.16%; AUC(0-t) [8]: 999 ng·h/mL; MRT [9]: 155 min
